# Experiments:
# [1] = Rat PK at equimolar dose to Ezogabine (20 mg/kg) in 0.5% methylcellulose; conditions: for Exposure of ezogabine (dose normalized AUC) compared with ezogabine itself: rats, equimolar dose to Ezogabine 20 mg/kg
# Description: (§1) Blood samples were collected at the same time points over 24 hours to generate a concentration time profile. Two male rats were dosed per group. Plasma samples were analyzed by LC/MS/MS and the resulting concentration time profiles and PK parameters are provided.
# as §1, §1
# MES induced seizures [2] = assay: Maximal electroshock assay of Compound 28, IP; format: in vivo, CF-1 mice; conditions: for Animals protected from MES induced seizures: 30 minutes after administration
# [3] = Acid and organic solution stability, HPLC-UV 250 nm; conditions: 5 mg/mL; for Degradation / conversion to ezogabine in solution (summary): up to 3 weeks
# Description: An HPLC-UV Vis method was developed using 0.1% Formic acid in water as mobile phase A and 0.1% Formic acid in acetonitrile as mobile Phase B. A gradient method was developed ramping from 10% A to 90% B over 8 minutes and then returning to 10% A at 8.5 minutes on a 4.6×50 mm Zorbax C-18 column. Injections of 10 uL of stability solutions were injected for analyte detection.
# […] Aliquots were collected at serial time points and then diluted to a nominal concentration of 100 ug/mL for injection to the HPLC and 250 nm monitored by the diode array detector. Data at approximately 10 days is presented.
# Aliquots were collected at serial time points and then diluted to a nominal concentration of 100 ug/mL for injection to the HPLC and 250 nm monitored by the diode array detector.
# (§2) It was also evaluated at 2 N HCl at 37° C. Aliquots were collected at serial time points and then diluted to a nominal concentration of 100 ug/mL for injection to the HPLC and 250 nm monitored by the diode array detector.
# as §2, §2, §2
# [4] = Drug concentration in plasma and brain after Compound 28 IP; conditions: CF-1 mice, 30 minutes
# MES induced seizures [5] = assay: Mouse maximal electroshock (MES) assay of Compound 29, oral; format: in vivo, CF-1 mouse; conditions: oral 30 mg/kg; 0.25, 0.5 and 1 h
# Source text: (§3) Each male CF-1 mouse provided one data point in the MES assay and one data point in the concentration analysis. There were 8 mice per time point.
# [6] = Plasma and brain concentration after oral Compound 29; conditions: oral 30 mg/kg Compound 29, 0.25, 0.5 and 1 h
# Source text: as §3
# [7] = male jugular vein cannulated rats, dose equimolar to Ezogabine 20 mg/kg, 0.5% methylcellulose in water, 24 hours, analyte the dosed prodrug
# [8] = male jugular vein cannulated rats, dose equimolar to Ezogabine 20 mg/kg, 0.5% methylcellulose in water, analyte the dosed prodrug
smiles,measurement,setting,value
CCOC(=O)Nc1ccc(NCc2ccc(F)cc2)cc1NC(=O)C[C@@H](CN)CC(C)C [Compound 28],AUClast/D,[1]; [7],83.0 ng·h/mL/mg/kg
same,Cmax/D,[1]; [8],9.31 ng/mL/mg/kg
same,Exposure of ezogabine (dose normalized AUC) compared with ezogabine itself,[1],lower exposure
same,Animals protected from MES induced seizures,MES induced seizures [2]; IP 12 mg/kg,1 of 9
same,Animals protected from MES induced seizures,MES induced seizures [2]; IP 24 mg/kg,3 of 9
same,"Protection against MES induced seizures, dose response","MES induced seizures [2]; IP 1.5, 3, 6, 12 and 24 mg/kg",None of the doses showed complete protection
same,Degradation / conversion to ezogabine in solution (summary),[3],degradation to ezogabine with increasing strength of the acidic solution
same,Ezogabine Area,"[3]; 0.1N HCl, room temp., normal light, 440 h",0 mAU
same,Ezogabine Area,"[3]; 1N HCl, room temp., normal light, 440 h",568 mAU
same,Ezogabine Area,"[3]; 2N HCl 37 C., 440 h",3593 mAU
same,Ezogabine Area,"[3]; 2N HCl, room temp., normal light, 440 h",1462 mAU
same,Appearance of the stability solution,[3]; 11 days,clear and colorless through Day 11
same,% Remaining,[3]; 440 h,92.0%
same,Ezogabine Area,"[3]; Acetonitrile, room temp., normal light, 440 h",248 mAU
same,Ezogabine Area,"[3]; Methanol, room temp., normal light, 440 h",0 mAU
same,Concentration of the prodrug compared with ezogabine,[4],present at higher concentrations than ezogabine
CCNC(=O)CC[C@H](N)C(=O)Nc1cc(NCc2ccc(F)cc2)ccc1NC(=O)OCC.Cl [Compound 29],AUClast,[1]; [7],6110 ng·h/mL
same,Cmax/D,"[1]; male jugular vein cannulated rats, dose equimolar to Ezogabine 20 mg/kg, 0.5% methylcellulose in water, analyte Ezogabine",23.3 ng/mL/mg/kg
same,Cmax,[1]; [8],883 ng/mL
same,Cmax/D,[1]; [8],44.2 ng/mL/mg/kg
same,Tmax,[1]; [8],9.6 min
same,Exposure of ezogabine (dose normalized AUC) compared with ezogabine itself,[1],similar
same,Pharmacological response in MES over time,MES induced seizures [5],reduced in tandem to the decrease in brain concentrations
same,Exposure of ezogabine,[6],very high in plasma and was present in brain
same,Degradation / conversion to ezogabine in solution (summary),[3],degradation under acidic conditions and also conversion to ezogabine
same,Ezogabine Area,"[3]; 0.1N HCl, room temp., normal light, 441 h",0 mAU
same,Ezogabine Area,"[3]; 1N HCl, room temp., normal light, 441 h",1241 mAU
same,Ezogabine Area,"[3]; 2N HCl 37 C., 441 h",1755 mAU
same,Ezogabine Area,"[3]; 2N HCl, room temp., normal light, 441 h",1659 mAU
same,Ezogabine Area,"[3]; Methanol, room temp., normal light, 441 h",0 mAU

# Reference: patent publication US20240228434A1, “PRODRUGS OF KV7 CHANNEL OPENERS” (Xyzagen, Inc., priority 2021, published 2024)
